Laboratory results published in patent US20250355005A1, “System and Method for Drug-Related Data Collection and Analysis” (FloBio LLC, priority 2023, published 2025).

Tested on: blood sample (fibrin and platelet accumulation at collagen/tissue factor reaction zone)
Experiment: microfluidic flow assay of a blood sample treated with different doses of DOAC, fibrin and platelet fluorescence signal at two temperatures
Type: cell-based, human
Conditions: increasing Rivaroxaban dose, in relation to the HBS control; 37° C. and 21° C.
Description: Fibrin signal decreases as Rivaroxaban (R) dose is increased, in relation to the HBS control, as expected. As temperature increases, fibrin reactions initiate carlier, fibrin and platelet maximum rate of change increases (steeper slope), and fibrin and platelet signals are increased overall at the same point in time. The DOAC drug dose effect seen at higher temperatures follows similar dose behavior seen at lower temperatures. As illustrated in FIGS. 49A-49B, about a two-fold platelet signal increase at 400 s is seen, a substantial increase in maximum rate of change of fluorescence is also seen. […]
The device 100 can allow for up to eight unique conditions to be tested simultaneously. […] Estimated drug level can be determined through comparison to a fully attenuated sample and a fully reversed sample, in comparison to an IC50 drug response curve, linear regression, […] analysis or other statistical methodology. […]
The system can rely on direct fluorescence signals for analysis of the results at the collagen/tissue factor 112. Fresh whole blood (used within minutes of venous draw), AF594 fibrinogen label (fibrinogen from human plasma, Alexa Fluor™ 594 conjugate) and platelet MCA2588A488 label (mouse anti-human CD61, Alexa Fluor™ 488 conjugate) can be added to the device 100 and the direct fluorescence signals can be analyzed. […]

Question: Which Fibrin signal does the source give for `O=C(NC[C@H]1CN(c2ccc(N3CCOCC3=O)cc2)C(=O)O1)c1ccc(Cl)s1` [Rivaroxaban] here?
Answer: decreases
